From patent US10363251B2, “(+)-morphinans as antagonists of toll-like receptor 9 and therapeutic uses thereof” (Mallinckrodt LLC, priority 2009, dated 2019)

Key:
[1] = target: T1, TLR2 (Homo sapiens, UniProt O60603); assay: TLR2 antagonist screening, NF-κB-inducible SEAP reporter in HEK293 cells; format: cell-based; details: 10 μM; stimulated with HKLM at 10^8 cell/ml
T1 construct: expressed in transfected cells; host or cells: HEK293
Description: (§1) Stimulation of TLRs 2, 3, 4, 5, 7, 8, and 9 was determined by assessing activation of the transcription factor NF-κB in HEK293 cells that were engineered to express the corresponding receptors. Assessment of TLR stimulation was based on the use of an NF-κB-inducible secreted alkaline phosphatase (SEAP) reporter system in which the SEAP reporter was under the control of a promoter inducible by NF-κB. Thus, the degree of activation of TLRs can be indirectly quantified spectrophotometrically by measuring the amount of the SEAP reporter that is produced.
(§2) The appropriate TLR-expressing cells were plated in Growth Medium in a 96-well plate (25,000-50,000 cells/well). The cells were stimulated with the appropriate positive control ligand or no ligand was added (negative control). The positive control ligands were: HKLM was used to stimulate TLR2; poly(I:C) was used to stimulate TLR3; LPS was used to stimulate TLR4; Flagellin was used to stimulate TLR5; CL097 was used to stimulate TLR7; CL075 was used to stimulate TLR8; CpG oligodeoxynucleotide (ODN) 2006 was used to stimulate TLR9. To test whether (+)-morphinans could block that activation of the TLR, the cells were pretreated with an antagonist for 30 minutes prior to addition of the positive control ligand. For this, 20 μL of the stock test compound solution (100 μM in H2O) was added to give a total volume of 200 μL. […] After a 16-20 hr incubation period at 37° C. in a CO2 incubator, 20 μL of the cell culture supernatant was added to 180 μL of QUANTI-Blue™ Media (InvivoGen, San Diego, Calif.), and the resulting solutions were incubated at 37° C. for an additional 1-3 hours according to the manufacturer's instructions. The OD's of the samples were then read at 650 nm on a Beckman Coulter AD 340C Absorbance Detector.

[2] = target: T2, TLR5 (Homo sapiens, UniProt O60602); assay: TLR5 antagonist screening, NF-κB-inducible SEAP reporter in HEK293 cells; format: cell-based; details: 10 μM; stimulated with Flagellin at 100 ng/ml
T2 construct: expressed in transfected cells; host or cells: HEK293
Description: as §1, §2

[3] = target: T3, TLR9 (Homo sapiens, UniProt Q9NR96); assay: TLR9 antagonist screening, NF-κB-inducible SEAP reporter in HEK293 cells; format: cell-based; details: 10 μM; stimulated with CpG ODN 2006 at 100 ng/ml
T3 construct: expressed in transfected cells; host or cells: HEK293
T3 sequence (Q9NR96 26-1032): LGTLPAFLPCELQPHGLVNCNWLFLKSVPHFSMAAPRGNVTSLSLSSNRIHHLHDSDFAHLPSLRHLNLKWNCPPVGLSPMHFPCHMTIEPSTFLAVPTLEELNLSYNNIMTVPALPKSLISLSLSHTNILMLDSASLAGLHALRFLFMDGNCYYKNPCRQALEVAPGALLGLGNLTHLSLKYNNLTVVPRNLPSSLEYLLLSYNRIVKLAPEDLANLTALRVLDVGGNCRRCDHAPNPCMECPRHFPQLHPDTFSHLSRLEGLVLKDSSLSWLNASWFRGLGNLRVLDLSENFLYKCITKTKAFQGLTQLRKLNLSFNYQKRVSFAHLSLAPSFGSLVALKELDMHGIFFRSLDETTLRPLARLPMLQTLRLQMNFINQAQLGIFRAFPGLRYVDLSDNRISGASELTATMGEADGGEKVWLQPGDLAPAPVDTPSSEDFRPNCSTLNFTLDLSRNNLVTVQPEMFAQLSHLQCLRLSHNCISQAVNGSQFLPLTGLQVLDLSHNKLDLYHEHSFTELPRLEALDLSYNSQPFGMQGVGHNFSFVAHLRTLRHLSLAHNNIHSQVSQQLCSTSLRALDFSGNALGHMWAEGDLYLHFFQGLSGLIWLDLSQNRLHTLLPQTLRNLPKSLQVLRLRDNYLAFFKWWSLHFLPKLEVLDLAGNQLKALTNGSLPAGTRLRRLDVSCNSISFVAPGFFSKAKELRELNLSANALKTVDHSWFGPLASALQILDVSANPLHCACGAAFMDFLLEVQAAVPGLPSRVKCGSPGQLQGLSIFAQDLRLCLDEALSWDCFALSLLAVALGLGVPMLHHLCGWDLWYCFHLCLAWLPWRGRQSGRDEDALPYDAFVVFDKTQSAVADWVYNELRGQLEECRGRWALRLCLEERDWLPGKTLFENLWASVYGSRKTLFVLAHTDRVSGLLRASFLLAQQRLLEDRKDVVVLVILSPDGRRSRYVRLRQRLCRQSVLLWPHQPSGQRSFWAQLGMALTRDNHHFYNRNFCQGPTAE
Description: as §1, §2

[4] = target: T4, TLR4 (Homo sapiens, UniProt O00206); assay: TLR4 antagonist screening, NF-κB-inducible SEAP reporter in HEK293 cells; format: cell-based; details: 10 μM; stimulated with LPS at 100 ng/ml
T4 construct: expressed in transfected cells; host or cells: HEK293
Description: as §1, §2

[5] = target: T5, TLR3 (Homo sapiens, UniProt O15455); assay: TLR3 antagonist screening, NF-κB-inducible SEAP reporter in HEK293 cells; format: cell-based; details: 10 μM; stimulated with poly(I:C) at 1 μg/ml
T5 construct: expressed in transfected cells; host or cells: HEK293
Description: as §1, §2

[6] = test system: chronic constriction injury (CCI) neuropathic pain model; assay: Mechanical allodynia (Von Frey) in chronic constriction injury (Bennett) model, Example 3; format: in vivo, rat; details: Day 14 post-surgery, 30 and 90 min post-dosing, vs vehicle
Text: Neuropathic pain affects approximately 1% of the U.S. population and is extremely difficult to manage. Usually the pain is chronic, severe, and fails to respond to traditional analgesic drugs. Fortunately, one of the most widely used animal models for neuropathic pain closely mimics the pain endured by patients. In this model, termed the chronic constriction injury (CCI) or Bennett model, four closely spaced ligatures tied loosely around the sciatic nerve of a rat cause demyelination of the nerve, resulting in spontaneous pain, such as prolonged paw elevation and licking of the ligated paw. Induced pain in the nerve-injured limb can be measured using Von Frey filaments, applied to the plantar surface of the paw to test for responses to non-noxious tactile stimulation. The onset of this heightened mechanical allodynia is quite rapid and it persists for 2-3 months.
In this example, the CCI ligation was performed on the left sciatic nerve in three groups of rats. Von Frey testing of mechanical allodynia was performed on both paws on Day 14 to determine the analgesic efficacy of the test agent. The testing was performed pre-dosing, and at 30 and 90 minutes post-dosing.
The animals were allocated to treatment groups based on their baseline Von Frey data, measured prior to surgery. The mechanical allodynia scores for each group were reviewed to ensure that the mean values and standard deviation satisfied the assumption of homogeneity. Thirty-one (31) animals were used on the study. Thirty (30) animals were initially allocated to treatment groups, and the remaining […] animals were held as spares. One spare was then used to replace an animal that died during surgery. Body weights were taken one day after arrival, prior to surgery and weekly thereafter. On Day 14, after the final behavioral testing, the animals were euthanized by carbon dioxide asphyxiation. No necropsy was performed nor tissues collected.
All surgeries were performed under aseptic conditions. Prior to surgery, the rats were sedated using inhaled Isoflurane anesthetic. The left leg was shaved and prepped. The common sciatic nerve was exposed and freed from adherent tissue at mid-thigh by separating the muscle (biceps femoris) by blunt dissection. Proximal to the sciatic nerve's trifurcation; approximately 7 mm of nerve was freed from the adhering tissue. Four ligatures, approximately 1 mm apart, were tied loosely around the nerve using 6.0 chromic catgut. Each of the sutures was tied loosely with a square knot around the sciatic nerve. A brief twitch in the muscle surrounding the exposure was an indicator of the desired degree of constriction. The site was then closed using the appropriate suture material. Post-operative care and observations were carried out until the animal recovered consciousness.
The animals underwent a series of behavioral testing for neuropathic pain assessment. A Von Frey test of mechanical allodynia was performed on both hind paws prior to surgery to achieve a baseline measurement for randomization and then following surgery on Day 14 (test article efficacy) according to Table 4.
Twice prior to surgery, the animals were acclimated to the allodynia apparatus. This habituated the rats to the testing devices to familiarize them with the apparatus so they were calm at the time of testing. […] Animals were first habituated to the testing chamber so that they were calm enough for their pain threshold to be assessed. […]

[7] = target: T3, TLR9; assay: TLR9 screening of (+)-morphinan library, SEAP reporter in HEK293 cells expressing TLR9; format: cell-based; details: activator ODN2006; for OD 650 nm (mean ± sd): control (no activator) 0.14, activator 1.42 OD; for inhibition at 0.1 µM: HEK293, read-out: % Inhibition (mean), 100 nM; for inhibition at 10 µM: HEK293, read-out: % Inhibition (mean), 10 μM
How it was run: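 HEK293 cells expressing TLR9 with an NF-κB-inducible SEAP reporter were preincubated with compound at 10 μM and 100 nM for 30 min at 37 °C, then stimulated with ODN2006. SEAP was read as OD 650 nm after 16-20 h, in triplicate.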

[8] = test system: APAP-induced liver toxicity; assay: Acetaminophen (APAP)-induced hepatotoxicity model; format: in vivo, mouse; details: APAP 500 mg/Kg ip, 12 hours post-APAP
Description: For this, APAP-induced liver toxicity was induced in male C57BL/6 mice aged between 8-10 weeks by a single intraperitoneal (ip) injection of APAP in PBS at a dose of 500 mg/Kg (Imaeda et al. (2009) J. Clin. Invest. 119(2):305-314). The ability of (+)-morphinans to reduce liver toxicity was tested in the following groups:
The (+)-morphinan (or PBS) was either administered as a single subcutaneous (sc) or ip injection concurrent with the APAP injection or one hour prior to the APAP injection.
The mice were sacrificed 12 hours post-APAP treatment. Liver samples were stained with H&E and analyzed for signs of necrosis and hemorrhage. Histology scores were assigned using the standard rating scale. The levels of serum alanine transaminase (ALT) were also measured in each animal using a standard assay.

[9] = test system: Experimental Autoimmune Encephalomyelitis (EAE); details: for EAE clinical scores: bid for 20 days, Cmpd II-98 5 mg/kg sc, others 20 mg/kg sc, Prednisolone 4.5 mg/kg ip, vs vehicle control
[10] = Dissolution of compound in dosing vehicle (EAE study); format: physicochemical; details: 20 mg/kg in sterile dd H2O; delivered as a suspension
Text: It is not known whether the suspension dissolved adequately in the body to provide sufficient plasma concentration for efficacy.

T2 sequence (O60602 21-858, species assumed): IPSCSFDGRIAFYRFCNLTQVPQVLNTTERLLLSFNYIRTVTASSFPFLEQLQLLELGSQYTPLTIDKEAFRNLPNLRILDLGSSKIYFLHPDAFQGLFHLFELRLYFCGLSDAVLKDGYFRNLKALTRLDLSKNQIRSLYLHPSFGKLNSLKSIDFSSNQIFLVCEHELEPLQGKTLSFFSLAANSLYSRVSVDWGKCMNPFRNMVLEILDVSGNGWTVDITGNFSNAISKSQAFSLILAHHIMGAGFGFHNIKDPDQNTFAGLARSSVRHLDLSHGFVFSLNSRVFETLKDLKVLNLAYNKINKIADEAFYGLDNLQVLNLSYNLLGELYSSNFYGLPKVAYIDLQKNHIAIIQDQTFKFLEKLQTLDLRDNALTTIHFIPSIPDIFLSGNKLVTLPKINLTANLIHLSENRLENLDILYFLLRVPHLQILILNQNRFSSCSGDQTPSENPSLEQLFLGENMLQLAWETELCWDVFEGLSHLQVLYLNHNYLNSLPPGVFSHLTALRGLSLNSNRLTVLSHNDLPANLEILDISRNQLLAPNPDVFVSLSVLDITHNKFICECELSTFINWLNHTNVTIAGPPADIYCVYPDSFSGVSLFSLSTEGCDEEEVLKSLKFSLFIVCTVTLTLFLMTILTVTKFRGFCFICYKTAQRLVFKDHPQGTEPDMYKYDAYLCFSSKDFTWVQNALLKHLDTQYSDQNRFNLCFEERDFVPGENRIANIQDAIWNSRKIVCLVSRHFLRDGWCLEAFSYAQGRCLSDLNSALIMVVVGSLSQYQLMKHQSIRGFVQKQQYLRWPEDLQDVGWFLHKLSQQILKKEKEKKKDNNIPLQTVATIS
T5 sequence (O15455 24-904, species assumed): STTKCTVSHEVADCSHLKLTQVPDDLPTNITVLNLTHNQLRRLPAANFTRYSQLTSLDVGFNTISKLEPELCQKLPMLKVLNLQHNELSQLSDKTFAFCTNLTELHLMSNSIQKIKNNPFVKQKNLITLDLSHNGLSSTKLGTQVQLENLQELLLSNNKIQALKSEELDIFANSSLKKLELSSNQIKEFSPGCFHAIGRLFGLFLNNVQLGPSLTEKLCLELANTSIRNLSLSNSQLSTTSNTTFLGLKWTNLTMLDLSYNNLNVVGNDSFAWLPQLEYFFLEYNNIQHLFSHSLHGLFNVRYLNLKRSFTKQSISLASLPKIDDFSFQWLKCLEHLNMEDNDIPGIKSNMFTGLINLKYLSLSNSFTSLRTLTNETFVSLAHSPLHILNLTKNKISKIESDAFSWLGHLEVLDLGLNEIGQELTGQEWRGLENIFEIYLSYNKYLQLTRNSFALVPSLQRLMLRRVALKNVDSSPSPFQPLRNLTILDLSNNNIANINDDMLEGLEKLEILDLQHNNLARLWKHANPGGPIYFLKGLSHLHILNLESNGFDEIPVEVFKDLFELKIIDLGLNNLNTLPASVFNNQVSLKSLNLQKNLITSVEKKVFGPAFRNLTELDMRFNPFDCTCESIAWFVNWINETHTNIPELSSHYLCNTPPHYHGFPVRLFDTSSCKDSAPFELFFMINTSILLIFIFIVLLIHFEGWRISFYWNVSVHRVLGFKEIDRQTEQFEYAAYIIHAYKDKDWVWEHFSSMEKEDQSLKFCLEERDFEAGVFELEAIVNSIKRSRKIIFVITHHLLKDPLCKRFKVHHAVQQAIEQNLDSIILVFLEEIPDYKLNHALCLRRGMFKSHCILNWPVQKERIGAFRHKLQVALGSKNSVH
T4 sequence (O00206 24-839, species assumed): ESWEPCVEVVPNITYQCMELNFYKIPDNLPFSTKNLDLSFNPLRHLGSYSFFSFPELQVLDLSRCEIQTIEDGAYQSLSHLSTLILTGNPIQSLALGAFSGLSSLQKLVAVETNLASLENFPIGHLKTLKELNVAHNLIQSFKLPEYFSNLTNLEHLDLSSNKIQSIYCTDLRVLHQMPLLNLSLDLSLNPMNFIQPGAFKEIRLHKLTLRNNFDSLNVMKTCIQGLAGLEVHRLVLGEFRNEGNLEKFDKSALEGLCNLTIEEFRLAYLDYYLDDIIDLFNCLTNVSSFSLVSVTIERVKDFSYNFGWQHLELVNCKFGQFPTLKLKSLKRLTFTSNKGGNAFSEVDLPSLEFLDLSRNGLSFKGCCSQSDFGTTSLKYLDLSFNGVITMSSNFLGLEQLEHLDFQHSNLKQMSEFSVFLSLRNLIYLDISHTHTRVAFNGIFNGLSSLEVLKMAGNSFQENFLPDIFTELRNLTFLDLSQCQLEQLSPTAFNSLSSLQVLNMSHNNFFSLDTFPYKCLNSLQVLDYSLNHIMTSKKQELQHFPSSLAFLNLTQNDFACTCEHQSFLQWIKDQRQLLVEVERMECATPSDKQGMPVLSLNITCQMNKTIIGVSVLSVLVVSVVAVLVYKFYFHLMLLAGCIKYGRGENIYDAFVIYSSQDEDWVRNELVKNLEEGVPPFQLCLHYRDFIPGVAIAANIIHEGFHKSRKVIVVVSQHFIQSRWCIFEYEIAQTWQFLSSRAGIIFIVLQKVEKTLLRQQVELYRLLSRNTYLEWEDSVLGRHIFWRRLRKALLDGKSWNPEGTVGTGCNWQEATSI
T4 sequence (Q9Y6Y9 17-160 partner limits assumed, species assumed): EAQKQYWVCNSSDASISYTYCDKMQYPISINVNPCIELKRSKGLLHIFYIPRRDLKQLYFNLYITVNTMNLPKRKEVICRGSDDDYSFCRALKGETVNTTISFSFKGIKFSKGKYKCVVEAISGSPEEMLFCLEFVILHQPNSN
T1 sequence (O60603 21-784, species assumed): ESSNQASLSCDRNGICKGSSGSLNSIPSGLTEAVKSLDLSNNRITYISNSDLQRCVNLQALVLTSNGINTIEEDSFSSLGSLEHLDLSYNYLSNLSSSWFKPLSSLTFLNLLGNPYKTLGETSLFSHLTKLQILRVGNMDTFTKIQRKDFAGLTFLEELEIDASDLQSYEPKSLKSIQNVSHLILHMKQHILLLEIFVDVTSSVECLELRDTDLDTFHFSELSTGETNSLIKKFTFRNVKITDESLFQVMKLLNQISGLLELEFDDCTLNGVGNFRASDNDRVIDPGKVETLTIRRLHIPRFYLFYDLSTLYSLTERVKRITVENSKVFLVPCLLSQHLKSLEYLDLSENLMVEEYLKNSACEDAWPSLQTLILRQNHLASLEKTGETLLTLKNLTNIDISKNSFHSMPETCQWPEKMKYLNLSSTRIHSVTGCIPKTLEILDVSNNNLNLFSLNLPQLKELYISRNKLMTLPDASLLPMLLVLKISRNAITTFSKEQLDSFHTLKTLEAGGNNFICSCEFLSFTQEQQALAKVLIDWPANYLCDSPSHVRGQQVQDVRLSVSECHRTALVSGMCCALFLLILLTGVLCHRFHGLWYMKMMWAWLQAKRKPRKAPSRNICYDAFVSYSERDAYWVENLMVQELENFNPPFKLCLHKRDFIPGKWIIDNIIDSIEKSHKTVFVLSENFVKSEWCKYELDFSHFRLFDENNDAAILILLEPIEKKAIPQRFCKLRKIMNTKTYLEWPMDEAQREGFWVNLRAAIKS

SMILES | OD 650 nm (mean ± sd) ([7]; 100 nM) [OD] | OD 650 nm (mean ± sd) ([7]; 10 μM) [OD] | inhibition at 0.1 µM [7] [%] | inhibition at 10 µM [7] [%] | EAE clinical scores [9] | further results
O=C1CC[C@]2(O)[C@@H]3Cc4ccc(O)c5c4[C@]2(CCN3CC2CC2)[C@@H]1O5 [(+)-Naltrexone, (+)-naltrexone] |  |  |  |  |  | Average % Inhibition at TLR2 [1]: 21%; Average % Inhibition at TLR5 [2]: 22%; Average % Inhibition at TLR9 [3]: 51%; Average % Inhibition at TLR4 [4]: 24%; Average % Inhibition at TLR3 [5]: 22%
NCC1(CC(=O)O)CCCCC1 [Gabapentin] |  |  |  |  |  | Mechanical allodynia (50% allodynia threshold), left (affected) paw ([6]; (+)-naloxone.HCl 66.7 mg/kg S.C., Gabapentin 100 mg/kg I.P.): effective at significantly reducing the allodynia; Mechanical allodynia (50% allodynia threshold), right (unaffected) paw [6]: higher threshold
COc1ccc2c3c1O[C@@H]1C(=O)CC[C@@H]4[C@H](C2)N(CC2CC2)CC[C@@]314 [II-24] | 0.65 ± 0.04 | 0.09 ± 0.01 | 54 | 94 | did not improve EAE | Protection from APAP-induced toxicity ([8]; test doses and timing per Table 6): None of compounds II-24, II-93, or III-2 provided any protection; Liver histology scores (necrosis and hemorrhage) ([8]; vs APAP alone): about the same as those only exposed to APAP
COC1=CC=C2[C@@H]3Cc4ccc(OC)c5c4[C@]2(CCN3)[C@@H]1O5 [II-38] | 0.86 ± 0.01 | 0.12 ± 0.01 | 40 | 92 | did not improve EAE | Dissolution in dosing vehicle [10]: did not dissolve into a solution
COC1=CCC2[C@@H]3Cc4ccc(OC)c5c4[C@]2(CCN3)[C@@H]1O5 (some centres unmarked) [II-98] | 1.02 ± 0.02 | 0.56 ± 0.03 | 28 | 60 |  | Acute toxicity ([9]; 20 mg/kg bid, subcutaneous): acute toxicity was observed
C[C@]12C=CC(=O)C=C1CC[C@@H]1[C@@H]2[C@@H](O)C[C@@]2(C)[C@H]1CC[C@]2(O)C(=O)CO [Prednisolone, reference compound] |  |  |  |  | significantly reduced EAE clinical scores | 
